Laboratory results: the CheMixHub viscosity set

Experiment: xn = mol fraction of the nth substance listed

ClC(Cl)(Cl)Cl + Clc1ccccc1
298.15 K, 101 kPa
Conditions | viscosity [mPa·s]
x2 = 0.2 | 0.844
x2 = 0.4 | 0.81
x2 = 0.6 | 0.787
x2 = 0.8 | 0.769

CCN(CC)CC + OCCO
101 kPa
Conditions | viscosity [mPa·s]
296.95 K, x1 = 0.143 | 16.28
297.85 K, x1 = 0.268 | 9.85
297.85 K, x1 = 0.514 | 2.7
297.85 K, x1 = 0.789 | 0.704
301.85 K, x1 = 0.143 | 13.5
302.85 K, x1 = 0.268 | 7.9
302.85 K, x1 = 0.789 | 0.644
306.45 K, x1 = 0.143 | 11.7
307.85 K, x1 = 0.268 | 6.79
307.85 K, x1 = 0.514 | 2.05
307.85 K, x1 = 0.789 | 0.589
312.95 K, x1 = 0.268 | 5.7
312.95 K, x1 = 0.514 | 1.79
312.95 K, x1 = 0.789 | 0.543
313.45 K, x1 = 0.143 | 9.46
317.75 K, x1 = 0.268 | 4.91
317.75 K, x1 = 0.514 | 1.61
317.75 K, x1 = 0.789 | 0.514
320.45 K, x1 = 0.143 | 7.64
322.75 K, x1 = 0.268 | 4.18
322.75 K, x1 = 0.514 | 1.45

COc1ccc(C)cc1 + CCCCCOC(C)=O
Conditions | viscosity [mPa·s]
298.15 K, 101 kPa, x1 = 0.5 | 0.8602

ClC(Cl)(Cl)Cl + COC(=O)OC
viscosity [mPa·s], 101.33 kPa
Conditions | x2 = 0.0994 | x2 = 0.201 | x2 = 0.3063 | x2 = 0.4005 | x2 = 0.5036 | x2 = 0.5982 | x2 = 0.7031 | x2 = 0.833 | x2 = 0.8997
298.15 K | 0.77 | 0.724 | 0.689 | 0.656 | 0.631 | 0.608 | 0.585 | 0.557 | 0.543
303.15 K | 0.719 | 0.68 | 0.646 | 0.614 | 0.588 | 0.572 | 0.548 | 0.52 | 0.511
308.15 K | 0.676 | 0.633 | 0.604 | 0.575 | 0.551 | 0.536 | 0.516 | 0.493 | 0.481

ClC(Cl)(Cl)Cl + CC(C)(C)O
viscosity [mPa·s], 101 kPa
Conditions | 298.15 K | 308.15 K | 318.15 K
x2 = 0.0318 | 0.886 | 0.768 | 0.674
x2 = 0.044 | 0.888 | 0.77 | 0.674
x2 = 0.086 | 0.91 | 0.78 | 0.678
x2 = 0.1644 | 0.958 | 0.801 | 0.693
x2 = 0.2487 | 1.007 | 0.853 | 0.712
x2 = 0.3632 | 1.086 | 0.897 | 0.751
x2 = 0.4833 | 1.221 | 0.987 | 0.806
x2 = 0.6052 | 1.43 | 1.118 | 0.892
x2 = 0.7156 | 1.74 | 1.303 | 1.007
x2 = 0.8301 | 2.392 | 1.67 | 1.222
x2 = 0.9132 | 3.045 | 1.98 | 1.381

ClC(Cl)(Cl)Cl + Cc1ccc(C)cc1
298.15 K, 101 kPa
Conditions | viscosity [mPa·s]
x2 = 0.1 | 0.87
x2 = 0.2 | 0.8339
x2 = 0.3 | 0.7997
x2 = 0.4 | 0.7675
x2 = 0.5 | 0.7372
x2 = 0.6 | 0.7087
x2 = 0.7 | 0.6816
x2 = 0.8 | 0.6556
x2 = 0.9 | 0.6301

CCN(CC)CC + O
293.15 K, 100 kPa
Conditions | viscosity [mPa·s]
x1 = 0.0049 | 1.176
x1 = 0.0095 | 1.323
x1 = 0.015 | 1.554
x2 = 0.1006 | 0.4211
x2 = 0.204 | 0.5113
x2 = 0.2996 | 0.6374
x2 = 0.4007 | 0.8296
x2 = 0.4997 | 1.135
x2 = 0.5997 | 1.614
x2 = 0.7028 | 2.385
x2 = 0.98 | 1.722

NCC(=O)N[C@@H](CCC(N)=O)C(=O)O + O
298.15 K, 101 kPa
Conditions | viscosity [mPa·s]
x1 = 0.001798 | 0.937
x1 = 0.002695 | 0.96

ClC(Cl)(Cl)Cl + Nc1ccccc1
298.15 K, 101.32 kPa
Conditions | viscosity [mPa·s]
x2 = 0.1018 | 0.991
x2 = 0.2047 | 1.111
x2 = 0.325 | 1.297
x2 = 0.3901 | 1.418
x2 = 0.4954 | 1.655
x2 = 0.5976 | 1.914
x2 = 0.7051 | 2.263
x2 = 0.8076 | 2.672
x2 = 0.9265 | 3.3

CCN(CC)CC + CCCCOCCO
viscosity [mPa·s], 100 kPa
Conditions | 298.15 K | 303.15 K | 308.15 K
x2 = 0.0506 | 0.431 | 0.407 | 0.383
x2 = 0.1002 | 0.51 | 0.474 | 0.447
x2 = 0.1499 | 0.598 | 0.553 | 0.518
x2 = 0.2 | 0.689 | 0.632 | 0.594
x2 = 0.3001 | 0.875 | 0.802 | 0.75
x2 = 0.3999 | 1.097 | 0.99 | 0.922
x2 = 0.5001 | 1.35 | 1.212 | 1.122
x2 = 0.6 | 1.632 | 1.457 | 1.342
x2 = 0.6996 | 1.946 | 1.714 | 1.576
x2 = 0.7994 | 2.254 | 1.979 | 1.809
x2 = 0.8995 | 2.578 | 2.264 | 2.058
x2 = 0.9498 | 2.724 | 2.392 | 2.174

CCCOC(C)=O + CCCCOC(C)=O
viscosity [mPa·s], 101 kPa
Conditions | x1 = 0.2 | x1 = 0.4 | x1 = 0.6 | x1 = 0.8
293.15 K | 0.697 | 0.67 | 0.644 | 0.618
313.15 K | 0.538 | 0.519 | 0.5 | 0.481

FCCl + FC(F)(Cl)C(F)(F)Cl
Conditions | viscosity [mPa·s]
312.21 K, 101.13 kPa, x1 = 0.754 | 0.2322
